According to PubChem BioAssay (NCI):
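Values below derive from 48-hour exposures of cells grown in 96-well plates, with endpoints linearly interpolated between the two concentrations bracketing the appropriate inhibition level. TGI denotes the concentration required for complete inhibition of growth.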

How the values were obtained:
Experiment in all cases: growth of human tumour cells (NCI), 48 h
[1] = system: A549 NSCLC
[2] = system: UACC-62 melanoma
[3] = system: MDA-MB-231 breast
[4] = system: SF-268 CNS
[5] = system: SN12C renal
[6] = system: SR leukemia
[7] = system: SK-OV-3 ovarian
[8] = system: NCI-H522 lung
[9] = system: HCT-116 colon
[10] = system: SNB-75 CNS
[11] = system: MOLT-4 leukemia
[12] = system: EKVX NSCLC
[13] = system: NCI-H226 lung
[14] = system: HT29 colon
[15] = system: TK-10 renal
[16] = system: SK-MEL-5 melanoma
[17] = system: IGROV1 ovarian
[18] = system: BT-549 breast
[19] = system: HOP-92 NSCLC
[20] = system: CAKI-1 renal
[21] = system: HCT-15 colon
[22] = system: T-47D breast
[23] = system: OVCAR-8 ovarian
[24] = system: SW-620 colon
[25] = system: HCC-2998 colon
[26] = system: COLO 205 colon
[27] = system: SNB-19 CNS
[28] = system: SF-539 CNS
[29] = system: U251 CNS
[30] = system: RXF 393 renal
[31] = system: HOP-62 NSCLC
[32] = system: SK-MEL-2 melanoma
[33] = system: UO-31 renal
[34] = system: 786-0 renal
[35] = system: A498 renal
[36] = system: MDA-N
[37] = system: M14 melanoma
[38] = system: OVCAR-5 ovarian
[39] = system: MALME-3M melanoma
[40] = system: ACHN renal
[41] = system: UACC-257 melanoma
[42] = system: LOX IMVI melanoma
[43] = system: MCF7 breast
[44] = system: MDA-MB-435
[45] = system: HS 578T breast
[46] = system: K-562 leukemia
[47] = system: NCI-H460 lung
[48] = system: OVCAR-4 ovarian
[49] = system: NCI/ADR-RES ovarian
[50] = system: NCI-H23 lung
[51] = system: SF-295 CNS
[52] = system: OVCAR-3 ovarian
[53] = system: KM12 colon
[54] = system: SK-MEL-28 melanoma
[55] = system: DU-145 prostate
[56] = system: CCRF-CEM leukemia
[57] = system: PC-3 prostate
[58] = system: HL-60(TB) leukemia
[59] = system: RPMI-8226 leukemia

COc1cc(-c2nc3nc(N4CCN(C)CC4)ccc3[nH]2)c(OC)c2[nH]c(CO)nc12
TGI [1]: > 100 µM
TGI [2]: > 100 µM
TGI [3]: > 100 µM
TGI [4]: > 100 µM
TGI [5]: > 100 µM
TGI [6]: > 100 µM
TGI [7]: > 100 µM
TGI [8]: > 100 µM
TGI [9]: > 100 µM
TGI [10]: > 100 µM
TGI [11]: > 100 µM
TGI [12]: > 100 µM
TGI [13]: > 100 µM
TGI [14]: > 100 µM
TGI [15]: > 100 µM
TGI [16]: > 100 µM
TGI [17]: > 100 µM
TGI [18]: > 100 µM
TGI [19]: > 100 µM
TGI [20]: > 100 µM
TGI [21]: > 100 µM
TGI [22]: > 100 µM
TGI [23]: > 100 µM
TGI [24]: > 100 µM
TGI [25]: > 100 µM
TGI [26]: > 100 µM
TGI [27]: > 100 µM
TGI [28]: > 100 µM
TGI [29]: > 100 µM
TGI [30]: > 100 µM
TGI [31]: > 100 µM
TGI [32]: 99.1 µM
TGI [33]: > 100 µM
TGI [34]: > 100 µM
TGI [35]: > 100 µM
TGI [36]: > 100 µM
TGI [37]: > 100 µM
TGI [38]: > 100 µM
TGI [39]: > 100 µM
TGI [40]: > 100 µM
TGI [41]: > 100 µM
TGI [42]: > 100 µM
TGI [43]: > 100 µM
TGI [44]: > 100 µM
TGI [45]: > 100 µM
TGI [46]: > 100 µM
TGI [47]: > 100 µM
TGI [48]: > 100 µM
TGI [49]: > 100 µM
TGI [50]: > 100 µM
TGI [51]: > 100 µM
TGI [52]: > 100 µM
TGI [53]: > 100 µM
TGI [54]: > 100 µM
TGI [55]: > 100 µM

O=C(O)c1ccc(Cc2ccccc2C(=O)O)cc1
TGI [1]: > 100 µM
TGI [2]: > 100 µM
TGI [3]: > 100 µM
TGI [56]: > 100 µM
TGI [4]: > 100 µM
TGI [5]: > 100 µM
TGI [6]: > 100 µM
TGI [7]: > 100 µM
TGI [8]: > 100 µM
TGI [9]: > 100 µM
TGI [10]: > 100 µM
TGI [12]: > 100 µM
TGI [13]: > 100 µM
TGI [14]: > 100 µM
TGI [15]: > 100 µM
TGI [16]: > 100 µM
TGI [17]: > 100 µM
TGI [18]: > 100 µM
TGI [19]: > 100 µM
TGI [20]: > 100 µM
TGI [21]: > 100 µM
TGI [22]: > 100 µM
TGI [23]: > 100 µM
TGI [24]: > 100 µM
TGI [25]: > 100 µM
TGI [26]: > 100 µM
TGI [27]: > 100 µM
TGI [28]: > 100 µM
TGI [29]: > 100 µM
TGI [30]: > 100 µM
TGI [31]: > 100 µM
TGI [32]: > 100 µM
TGI [33]: > 100 µM
TGI [34]: > 100 µM
TGI [35]: > 100 µM
TGI [36]: > 100 µM
TGI [57]: > 100 µM
TGI [37]: > 100 µM
TGI [38]: > 100 µM
TGI [39]: > 100 µM
TGI [40]: > 100 µM
TGI [41]: > 100 µM
TGI [58]: > 100 µM
TGI [42]: > 100 µM
TGI [43]: > 100 µM
TGI [44]: > 100 µM
TGI [45]: > 100 µM
TGI [46]: > 100 µM
TGI [47]: > 100 µM
TGI [48]: > 100 µM
TGI [49]: > 100 µM
TGI [50]: > 100 µM
TGI [51]: > 100 µM
TGI [59]: > 100 µM
TGI [52]: > 100 µM
TGI [53]: > 100 µM
TGI [54]: > 100 µM

COc1ccc(OC)c(C(=O)c2cccc(C(=O)c3cc(OC)ccc3OC)n2)c1
TGI [1]: > 100 µM
TGI [2]: > 100 µM
TGI [3]: > 100 µM
TGI [56]: > 100 µM
TGI [4]: > 100 µM
TGI [5]: > 100 µM
TGI [6]: > 100 µM
TGI [7]: > 100 µM
TGI [8]: > 100 µM
TGI [9]: > 100 µM
TGI [10]: 59.4 µM
TGI [11]: > 100 µM
TGI [12]: > 100 µM
TGI [13]: 74.9 µM
TGI [14]: > 100 µM
TGI [15]: > 100 µM
TGI [16]: 50.5 µM
TGI [17]: > 100 µM
TGI [18]: 79.2 µM
TGI [20]: > 100 µM
TGI [21]: > 100 µM
TGI [22]: > 100 µM
TGI [23]: > 100 µM
TGI [24]: > 100 µM
TGI [25]: > 100 µM
TGI [26]: > 100 µM
TGI [27]: > 100 µM
TGI [28]: > 100 µM
TGI [29]: > 100 µM
TGI [30]: 43.4 µM
TGI [31]: > 100 µM
TGI [32]: 70.9 µM
TGI [33]: 85.9 µM
TGI [34]: > 100 µM
TGI [36]: 62.6 µM
TGI [57]: > 100 µM
TGI [37]: > 100 µM
TGI [38]: > 100 µM
TGI [39]: > 100 µM
TGI [40]: > 100 µM
TGI [41]: > 100 µM
TGI [58]: 71.9 µM
TGI [42]: > 100 µM
TGI [43]: 67.5 µM
TGI [45]: 84.5 µM
TGI [46]: > 100 µM
TGI [47]: > 100 µM
TGI [48]: > 100 µM
TGI [49]: > 100 µM
TGI [50]: 74 µM
TGI [51]: 74.5 µM
TGI [53]: > 100 µM
TGI [54]: > 100 µM
TGI [55]: > 100 µM
